Assay results from publication PMC9663578, “A fluorogenic probe for predicting treatment response in non-small cell lung cancer with EGFR-activating mutations” (Nature Communications, 2022).
“And” between values parts separate entries of the source, which are not always exact repeats. Equal values may be shown once.

Legend:
[1] = target: T1, EGFR wild-type (Homo sapiens, UniProt P00533); experiment: Kinase inhibition assay (fluorescent mobility-shift assay); type: biochemical; parameters: Kinase activity: unit not given here
T1 construct: Recombinant human EGFR (amino acids 668–1210, #PR7295B); purchased Thermo Fisher PR7295B

[2] = target: T2, EGFR 19del (Homo sapiens, UniProt P00533, DEL746-750); experiment: Fluorescence turn-on response / titration of HX103 with recombinant EGFR;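 for Fluorescence intensity at 570 nm: 100% is HX103 fluorescence with wild-type EGFR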;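 for Fluorescence response of HX103 to EGFR 19del: ratio I over I0 of probe intensity with versus without protein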; type: binding; conditions: for Fluorescence intensity, DEL19: Fig. 2c; for Fluorescence response of HX103 to EGFR 19del: Supplementary Fig. 2f
T2 construct: purchased Thermo Fisher PV6179
Description: (d) Fluorescence spectra change of HX103 (5 µ M) with increasing concentration of EGFR L858R
(e) Fluorescence spectra change of HX103 (5 µ M ) with
increasing concentration of EGFR 19del (0 to 6 µM) in PBS buffer. (f) Titration curve of HX103
(5 µM) with increasing concentration of EGFRs (0 to 6 µM). The apparent binding affinity (Kd)
The fluorescence titration curve was fitted on one -
site specific binding model. I and I0 represent the intensities of HX103 at 570 nm in the presence
and absence of protein. Data represent average val ues ± SD, n = 3 independent experiments per
solution was diluted in sodium phosphate buffer (PBS, 1 M, pH=7.4) to obtain the desired final
Data analysis：The obtained fluorescence intensity at 570 nm (Excitation wavelength was 440
was set at 100% to normalized that of the remaining samples.

[3] = MTT cytotoxicity assay; type: cell-based; conditions: human, A431 cells, EGFR wild-type, n=3
[4] = Measurement of optical properties; type: physicochemical; conditions: for Fluorescence intensity, HX103 only: Fig. 2a
Description: page 66: […] Measurement of optical properties In the study, UV-vis spectra of the probes were determined on a Hitachi U-2910. The fluorescence spectroscopic experiments were performed on BioTek microplate reader and Horiba Jobin Yvon - Edison Fluoromax-4. Absolute fluorescence quantum efficiency was measured by an absolute quantum yield spectrometer (Horiba Jobin Yvon-Edison Fluoromax-4). The tested probe was dissolved in dimethyl sulfoxide (DMSO) to obtain stock solutions (10 mM). The prepared stock […] concentration solution, containing 0.1% (v/v) DMSO as a cosolvent. For the in vitro kinase […] The excitation and emission fluorescence spectra of the solution before/after addition o f different concentration […] Data analysis:The obtained fluorescence intensity at 570 nm (Excitation wavelength was 440 nm) in each sample was normalized by using the fluorescence intensity of HX103 in the presence of EGFR. Specifically, the fluorescence intensity of HX103 in the presence of EGFR wild-type […] 66

[5] = system: MCF-7 cells; experiment: FACS assay in cultured cells
Description: The FACS assay was performed according to the reported literatures[67],[68]. Briefly, the cultured cells were seeded on the petri dish and counted using Count star BioMed automated cell counter. Around 10^6 live-cells were collected and were pelleted (2000×g, 3 min), followed by washing with PBS (2x). Cells were then resuspended in PBS buffer containing 0.1% BSA (1 × 10^6 cells/mL). […] The cell suspension was resuspended in PBS and analyzed with a FACSVerse^TM flow cytometer (BD Biosciences, LSRFortessa). About 10,000 events per tube were analyzed and the mean fluorescence intensity was detected and analyzed.
For the FACS assay with EGFR antibody, around 10^6 live-cells were collected and washed with PBS (2x). The cells were fixed by 400 µL 4% paraformaldehyde for 15 min at room temperature, followed by permeabilization with 0.1% Triton X-100 for 10 min and blocking with 5% BSA for 30 min. […] The cells were then washed with 0.5% BSA/PBS (3x) and resuspended in 400 µL of 0.1% BSA/PBS. […] The resuspended cell suspension was then analyzed on a FACSVerseTM flow cytometer (BD Biosciences, LSRFortessa). Nonspecific fluorescence binding was omitted by Rabbit mAb IgG isotype control (#3900, CST, 1:100) and the corresponding mean fluorescence was subtracted from the signal measured with each primary antibody. About 10,000 events per tube were analyzed and the mean fluorescence intensity was detected and analyzed.
Subsequently, the treated cells were incubated for 30 min at 37 °C, followed by washing with PBS buffer three times. […] Finally, the co-stained cells were washed with 0.5% BSA/PBS for three times and resuspended in 400 µL of 0.1% BSA/PBS. The obtained cell suspension was ready for analysis. Nonspecific fluorescence binding was omitted by Rabbit mAb IgG isotype control (#3900, CST, 1:100) as described above.
Nonspecific fluorescence binding was omitted by Rabbit mAb IgG isotype control (#3900, CST, 1:100). […] After incubation for another 30 min at room temperature, the co-stained cells were washed with 0.5% BSA/PBS for three times and resuspended in 400 µL of 0.1% BSA/PBS. The obtained cell suspension was ready for analysis. Nonspecific fluorescence binding was omitted by Rabbit mAb IgG isotype control (#3900, CST, 1:100) as described above.
The cells were seeded on the petri dish and cultured at the normal condition with 10% FBS, and that was changed to serum-free condition for 24 h when the cells proliferated at ~80% confluence. […] Nonspecific fluorescence binding was omitted by Rabbit mAb IgG isotype control (#3900, CST, 1:100) as described above.

[6] = target: T2, EGFR 19del; experiment: Kinase inhibition assay (fluorescent mobility-shift assay); type: biochemical; parameters: Kinase activity: unit not given here; conditions: for Kinase activity: 19del, n=1-3

Structure (SMILES): COc1cc2c(Nc3ccc(F)c(Cl)c3)ncnc2cc1OCCCNc1ccc(S(=O)(=O)N(C)C)c2nonc12 [HX103]
- Kinase activity ([1]; EGFR WT, Log [HX103 (M)] -9, n=1-3): 85.4 and 76.53 and 77.56
- IC50 ([1]; n = 3): 4 nM
- Fluorescence intensity, DEL19 ([2]; wavelength 666 nm): 6329.64
- Fluorescence intensity, DEL19 ([2]; wavelength 669 nm): 5943.64
- Fluorescence intensity, DEL19 ([2]; wavelength 671 nm): 5458.74
- Fluorescence intensity, DEL19 ([2]; wavelength 673 nm): 4903.02
- Fluorescence intensity, DEL19 ([2]; wavelength 676 nm): 4330.47
- Fluorescence intensity, DEL19 ([2]; wavelength 678 nm): 3796.5
- Fluorescence intensity, DEL19 ([2]; wavelength 681 nm): 3356.07
- Fluorescence intensity, DEL19 ([2]; wavelength 683 nm): 3030.49
- Fluorescence intensity, DEL19 ([2]; wavelength 686 nm): 2784.09
- Fluorescence intensity, DEL19 ([2]; wavelength 688 nm): 2575.72
- Fluorescence intensity, DEL19 ([2]; wavelength 690 nm): 2364.25
- Fluorescence intensity, DEL19 ([2]; wavelength 693 nm): 2121.24
- Fluorescence intensity, DEL19 ([2]; wavelength 695 nm): 1850.71
- Fluorescence intensity, DEL19 ([2]; wavelength 698 nm): 1561.85
- Fluorescence intensity, DEL19 ([2]; wavelength 700 nm): 1263.82
- Fluorescence intensity at 570 nm ([2]; Fig. 2d, HX103 with EGFR 19del, n=1-3): 101.138 and 103.905 and 84.1794
- fluorescence turn-on response ([2]; HX103 5 µM in PBS buffer (0.1% DMSO), 570 nm): high fluorescence
- Kd ([2]; HX103 5 µM, EGFR 0 to 6 µM in PBS, one-site specific binding model, read-out: apparent binding affinity (Kd)): 1100 ± 200 nM
- Fluorescence response of HX103 to EGFR 19del ([2]; EGFR 0.1 µM, n=1-3): 2.201 and 2.149 and 2.11
- Fluorescence response of HX103 to EGFR 19del ([2]; EGFR 1 µM, n=1-3): 5.519 and 5.544 and 5.826
- Fluorescence response of HX103 to EGFR 19del ([2]; EGFR 5 µM, n=1-3): 8.2406 and 9.498 and 10.3034
- Fluorescence response of HX103 to EGFR 19del ([2]; EGFR 6 µM, n=1-3): 10.0143 and 10.322 and 11.4127
- IC50 at 48 h [3]: 26000 nM
- Stokes shift [4]: 130 nm
- excitation maximum [4]: 340/440
- absolute quantum yield ([4]; DMSO): 42.4%
- maximum UV absorption ([4]; DMSO): 342/438
- Fluorescence intensity, HX103 only ([4]; wavelength 666 nm): 328.882
- Fluorescence intensity, HX103 only ([4]; wavelength 669 nm): 313.191
- Fluorescence intensity, HX103 only ([4]; wavelength 671 nm): 290.291
- Fluorescence intensity, HX103 only ([4]; wavelength 673 nm): 261.813
- Fluorescence intensity, HX103 only ([4]; wavelength 676 nm): 236.251
- Fluorescence intensity, HX103 only ([4]; wavelength 678 nm): 222.471
- Fluorescence intensity, HX103 only ([4]; wavelength 681 nm): 229.28
- Fluorescence intensity, HX103 only ([4]; wavelength 683 nm): 261.184
- Fluorescence intensity, HX103 only ([4]; wavelength 686 nm): 315.405
- Fluorescence intensity, HX103 only ([4]; wavelength 688 nm): 388.462
- Fluorescence intensity, HX103 only ([4]; wavelength 690 nm): 476.875
- Fluorescence intensity, HX103 only ([4]; wavelength 693 nm): 577.288
- Fluorescence intensity, HX103 only ([4]; wavelength 695 nm): 686.662
- Fluorescence intensity, HX103 only ([4]; wavelength 698 nm): 802.01
- Fluorescence intensity, HX103 only ([4]; wavelength 700 nm): 920.343
- Fluorescence intensity at 570 nm ([4]; Fig. 2b, HX103 alone, n=1-3): 8.2448 and 8.538 and 6.65
- absolute quantum yield ([4]; PBS): 5.8%
- fluorescence emission wavelength ([4]; excitation at 440 nm): 570 nm
- normalized MFI of HX103 labeling ([5]; HX103 5 µM, 30 min, replicates n=1-3): 25.1073% and 53.6481% and 30.8069%
- EGFR(+) HX103 (+) (%) ([5]; HX103 5 µM, replicates n=1-3): 0.04% and 0.02% and 0.09%
- EGFR(+) HX103 (+) (%) AVE ([5]; MCF-7, AVE of n=3): 0.05%
- HX103 (+) (%) AVE ([5]; MCF-7, AVE of n=3): 0.5297%
- EGFR(+) HX103 (+) (%) ([5]; MCF-7, replicates n=1-3): 0.09% and 0.04% and 0.02%
- HX103(+) (%) ([5]; MCF-7, replicates n=1-3): -0.051% and 1.21% and 0.43%
- Kinase activity ([6]; Log [HX103 (M)] -7.5): 4.826 and 8.074 and 4.95
- Kinase activity ([6]; Log [HX103 (M)] -8): 14.14 and 14.3 and 14.2
- Kinase activity ([6]; Log [HX103 (M)] -8.5): 33.15 and 25.38 and 27.26
- Kinase activity ([6]; Log [HX103 (M)] -9): 51.95 and 59.57 and 58.76
- IC50 ([6]; n = 3): 1.3 nM
